From patent publication US20110033387A1, “METHOD OF DETERMINATION OF PDH ACTIVITY AND IMAGING MEDIA FOR USE IN SAID METHOD” (GE HEALTHCARE LIMITED, priority 2007, published 2011) come the findings set out here.

Series [1] has as its system PDH. The experiment in a line: PDH activity by 13C-MR detection (13C-bicarbonate to 13C-pyruvate ratio) in STZ Type 1 diabetes model. Type of series: in vivo, male Wistar rats. The note with it: single i.p. injection 50 mg/kg, five days after induction, rat heart, each rat its own control. As to the method: Initial PDH activity (baseline) was determined in a first group of 6 rats according to Example 3. […] Five days after STZ-diabetes induction, PDH activity was determined again, each rat served as its own experimental control.
(§1) All rats were anaesthetised using isofluorane (2% in oxygen) and kept on a heated mat. Care was taken to maintain body temperature at 37° C. A catheter was introduced into the tail vein, and rats were then placed in a home-built animal handling system. ECG, respiration rate, and body temperature were monitored, and air heating was provided. Anaesthesia was continued by means of isofluorane (1.7%) delivered to a nose cone.
1 cm^3 of the imaging medium as prepared in Example 1 was injected over 10 s via the tail vein catheter in the anaesthetised rat. […]
(§2) The series of cardiac ^13C MR spectra were analysed using the AMARES algorithm as implemented in the jMRUI software package (Naressi et al., Computers in Biology and Medicine, 31(4), 2001, 269-286 and Naressi et al., Magnetic Resonance Materials in Physics, Biology and Medicine, 12(2-3), 2001, 141-152). […]
Maximum pyruvate peak area was calculated for each series of spectra, and was used to calculate maximum bicarbonate/pyruvate ratio. […] Parameters describing the kinetic progression of bicarbonate, namely time to appearance, time to maximum, and decay time to half maximum were also calculated.

In series [2] the test system is PDH. The experiment in a line: PDH flux by cardiac 13C-MR with imaging medium with or without malate, fed and fasted rats. Type of series: in vivo, male Wistar rats. The note with it: 40 μmol hyperpolarised 13C-pyruvate alone, fasted vs fed rats. As to the method:
as §1
A home-built ^1H/^13C butterfly coil was fit over the rat chest, localising signal from the heart. Rats were positioned in a 7 T horizontal bore MR scanner interfaced to a Varian Inova console. Correct positioning was confirmed by the acquisition of an axial proton FLASH image (TE/TR=1.17/2.33 ms, Matrix size=64×64, FOV=60×60 mm, Slice thickness=2.5 mm, Excitation flip angle=15°). […]
as §2
Maximum pyruvate peak area was calculated for each series of spectra, and was used to calculate maximum bicarbonate/pyruvate ratio. […] Parameters describing the kinetic progression of bicarbonate, namely time to appearance, time to maximum, and decay time to half maximum were also calculated. […]

Series [3] is described as follows: T1 relaxation of 13C1-pyruvate in human full blood. The series is classed as physicochemical. The note with it: human full blood at 37° C.

In the case of `CN(N=O)C(=O)N[C@H]1C(O)O[C@H](CO)[C@@H](O)[C@@H]1O` (mixture of isomers) [STZ, Streptozotocin], in series [1], the “ratio of the 13C-bicarbonate to 13C-pyruvate peak amplitude / PDH activity, before vs after STZ injection” value was “decrease in PDH activity”.

Regarding `CC(=O)C(=O)O` [^13C1-pyruvate, sodium ^13C1-pyruvate], the “PDH flux lower in fasted rats compared with fed rats” value in series [2] is on record as 55%. The T1 relaxation result in series [3] was “about 42 s”.
